The assay deals with ATX (human His-tagged) (Homo sapiens (Human), UniProt Q13822). The assay can be described thus: Human ATX enzyme inhibition assay (fluorescence quenching, MR121 substrate). In kind it is biochemical. The conditions noted are these: inhibitory activity against ATX; 30 nM ATX, 1 μM MR121 substrate, 30° C. As for the experimental part:
Human ATX Enzyme Inhibition Assay
ATX inhibition was measured by a fluorescence quenching assay using a specifically labeled substrate analogue (MR121 substrate). To obtain this MR121 substrate, BOC and TBS protected 6-amino-hexanoic acid (R)-3-({2-[3-(2-{2-[2-(2-amino-ethoxy)-ethoxy]-ethoxy}-ethoxy)-propionylamino]-ethoxy}-hydroxy-phosphoryloxy)-2-hydroxy-propyl ester (Ferguson et al., Org Lett 2006, 8 (10), 2023) was labeled with MR121 fluorophore (CAS 185308-24-1, 1-(3-carboxypropyl)-11-ethyl-1,2,3,4,8,9,10,11-octahydro-dipyrido[3,2-b:2′,3′-i]phenoxazin-13-ium) on the free amine of the ethanolamine side and then, after deprotection, subsequently with tryptophan on the side of the aminohexanoic acid.
Assay working solutions were made as follows:
Assay buffer (50 mM Tris-HCl, 140 mM NaCl, 5 mM KCl, 1 mM CaCl2, 1 mM MgCl2, 0.01% Triton-X-100, pH 8.0;
ATX solution: ATX (human His-tagged) stock solution (1.08 mg/mL in 20 mM bicine, pH 8.5, 0.15 M NaCl, 10% glycerol, 0.3% CHAPS, 0.02% NaN3), diluted to 1.4-2.5× final concentration in assay buffer;
MR121 substrate solution: MR121 substrate stock solution (800 μM MR121 substrate in DMSO), diluted to 2-5× final concentration in assay buffer.
Test compounds (10 mM stock in DMSO, 8 μL) were obtained in 384 well sample plates (Corning Costar #3655) and diluted with 8 μL DMSO. Row-wise serial dilutions were made by transferring 8 μL cpd solution to the next row up to […]. The compound and control solutions were mixed five times and 2 μL were transferred to 384 well assay plates (Corning Costar #3702). Then, 15 μL of 41.7 nM ATX solution was added (30 nM final concentration), mixed five times and then incubated for 15 minutes at 30° C. 10 μL of MR121 substrate solution was added (1 μM final concentration), mixed 30 times and then incubated for 15 minutes at 30° C. Fluorescence was then measured every 2 minutes for 1 hour (Perkin Elmer plate: vision multimode reader); light intensity: 2.5%; exp. time: 1.4 sec, Filter: Fluo_630/690 nm) and IC50 values were calculated from these readouts.

This note sets out measurements from US10669285B2, “Condensed [1,4] diazepine compounds as autotaxin (ATX) and lysophosphatidic acid (LPA) production inhibitors” (Hoffmann-La Roche Inc., priority 2014, dated 2020).

With `CC(C)(C)C(=O)Nc1cc(C#N)ccc1COC(=O)N1CCc2cc(C(=O)N3CCc4[nH]nnc4C3)nn2CC1` [Example 10, [4-Cyano-2-(2,2-dimethylpropanoylamino)phenyl]methyl 2-(1,4,6,7-tetrahydrotriazolo[4,5-c]pyridine-5-carbonyl)-4,5,7,8-tetrahydropyrazolo[1,5-d][1,4]diazepine-6-carboxylate], the IC50 worked out at 0.018 µM.

`O=C(OCc1ccc(OC(F)(F)F)cc1)N1CCc2nc(C(=O)N3CCc4[nH]nnc4C3)cn2CC1` [Example 13, [4-(Trifluoromethoxy)phenyl]methyl 2-(1,4,6,7-tetrahydrotriazolo[4,5-c]pyridine-5-carbonyl)-5,6,8,9-tetrahydroimidazo[1,2-d][1,4]diazepine-7-carboxylate] registered an IC50 of 0.017 µM.

On to `CC(C)c1cc(C#N)ccc1COC(=O)N1CCc2cc(C(=O)N3CCc4[nH]nnc4C3)nn2CC1` [Example 9, (4-Cyano-2-propan-2-ylphenyl)methyl 2-(1,4,6,7-tetrahydrotriazolo[4,5-c]pyridine-5-carbonyl)-4,5,7,8-tetrahydropyrazolo[1,5-d][1,4]diazepine-6-carboxylate], for which the 50% inhibitory concentration (IC50) stood at 0.006 µM. For `O=C(CCc1ccc(OC(F)(F)F)cc1)N1CCc2nc(C(=O)N3CCc4[nH]nnc4C3)nn2CC1` [Example 20, 1-[2-(1,4,6,7-tetrahydrotriazolo[4,5-c]pyridine-5-carbonyl)-5,6,8,9-tetrahydro-[1,2,4]triazolo[1,5-d][1,4]diazepin-7-yl]-3-[4-(trifluoromethoxy)phenyl]propan-1-one], the IC50 is 0.006 µM.

In turn, `CCc1cc(C#N)ccc1OCC(=O)N1CCc2cc(C(=O)N3CCc4[nH]nnc4C3)nn2CC1` [Example 16, 3-Ethyl-4-(2-oxo-2-(2-(4,5,6,7-tetrahydro-1H-[1,2,3]triazolo[4,5-c]pyridine-5-carbonyl)-7,8-dihydro-4H-pyrazolo[1,5-d][1,4]diazepin-6(5H)-yl)ethoxy)benzonitrile] had a 50% inhibitory concentration (IC50) of 0.012 µM. This IC50 lies about 2-fold higher than the previous one. As for `O=C(OCc1ccc(OC(F)(F)F)c(F)c1)N1CCc2cc(C(=O)N3CCc4[nH]nnc4C3)nn2CC1` [Example 3, [3-Fluoro-4-(trifluoromethoxy)phenyl]methyl 2-(1,4,6,7-tetrahydrotriazolo[4,5-c]pyridine-5-carbonyl)-4,5,7,8-tetrahydropyrazolo[1,5-d][1,4]diazepine-6-carboxylate], half-maximal inhibition (IC50) required 0.018 µM. To `CC(C)(C)c1cc(C#N)ccc1OCC(=O)N1CCc2cc(C(=O)N3CCc4[nH]nnc4C3)nn2CC1` [Example 17, 3-tert-Butyl-4-[2-oxo-2-[2-(1,4,6,7-tetrahydrotriazolo[4,5-c]pyridine-5-carbonyl)-4,5,7,8-tetrahydropyrazolo[1,5-d][1,4]diazepin-6-yl]ethoxy]benzonitrile] belongs 0.01 µM.

The compound `O=C(CCc1ccc(OC(F)F)c(F)c1)N1CCc2cc(C(=O)N3CCc4[nH]nnc4C3)nn2CC1` [Example 26, 3-[4-(difluoromethoxy)-3-fluorophenyl]-1-[2-(1,4,6,7-tetrahydrotriazolo[4,5-c]pyridine-5-carbonyl)-4,5,7,8-tetrahydropyrazolo[1,5-d][1,4]diazepin-6-yl]propan-1-one] yielded a concentration for half-maximal inhibition (IC50) of 0.016 µM. As to `CC(C)(C)C(=O)Nc1cc(C#N)ccc1COC(=O)N1CCc2nc(C(=O)N3CCc4[nH]nnc4C3)nn2CC1` [Example 12, [4-Cyano-2-(2,2-dimethylpropanoylamino)phenyl]methyl 2-(1,4,6,7-tetrahydrotriazolo[4,5-c]pyridine-5-carbonyl)-5,6,8,9-tetrahydro-[1,2,4]triazolo[1,5-d][1,4]diazepine-7-carboxylate], 0.067 µM corresponded to half-maximal inhibition (IC50).

Take `O=C(OCc1ccccc1)N1CCc2cc(C(=O)N3CCc4[nH]nnc4C3)nn2CC1` [Example 1, Benzyl 2-(1,4,6,7-tetrahydrotriazolo[4,5-c]pyridine-5-carbonyl)-4,5,7,8-tetrahydropyrazolo[1,5-d][1,4]diazepine-6-carboxylate]: inhibition was half-maximal at 0.158 µM (IC50). Against the preceding compound, the IC50 is about 2.4-fold higher. To `O=C(CCc1ccc(OC(F)(F)F)c(F)c1)N1CCc2nc(C(=O)N3CCc4[nH]nnc4C3)nn2CC1` [Example 21, 3-[3-fluoro-4-(trifluoromethoxy)phenyl]-1-[2-(1,4,6,7-tetrahydrotriazolo[4,5-c]pyridine-5-carbonyl)-5,6,8,9-tetrahydro-[1,2,4]triazolo[1,5-d][1,4]diazepin-7-yl]propan-1-one] belongs 0.017 µM. On to `N#Cc1ccc(COC(=O)N2CCc3cc(C(=O)N4CCc5[nH]nnc5C4)nn3CC2)c(F)c1` [Example 8, 4-Cyano-2-fluorobenzyl 2-(4,5,6,7-tetrahydro-1H-[1,2,3]triazolo[4,5-c]pyridine-5-carbonyl)-7,8-dihydro-4H-pyrazolo[1,5-d][1,4]diazepine-6(5H)-carboxylate], for which the midpoint of inhibition, the IC50, lay at 0.06 µM. `O=C(OCc1ccc(OC(F)(F)F)c(F)c1)N1CCc2nc(C(=O)N3CCc4[nH]nnc4C3)nn2CC1` [Example 36, [3-fluoro-4-(trifluoromethoxy)phenyl]methyl 2-(1,4,6,7-tetrahydrotriazolo[4,5-c]pyridine-5-carbonyl)-5,6,8,9-tetrahydro-[1,2,4]triazolo[1,5-d][1,4]diazepine-7-carboxylate] gave an IC50 of 0.006 µM. This IC50 lies about 10-fold lower than the previous one. To `O=C(OCc1ccc(C2CC2)cc1)N1CCc2cc(C(=O)N3CCc4[nH]nnc4C3)nn2CC1` [Example 34, 4-cyclopropylbenzyl 2-(4,5,6,7-tetrahydro-1H-[1,2,3]triazolo[4,5-c]pyridine-5-carbonyl)-7,8-dihydro-4H-pyrazolo[1,5-d][1,4]diazepine-6(5H)-carboxylate] belongs 0.007 µM. To `O=C(CCc1ccc(OC(F)(F)F)c(F)c1)N1CCc2cc(C(=O)N3CCc4[nH]nnc4C3)nn2CC1` [Example 18, 3-[3-fluoro-4-(trifluoromethoxy)phenyl]-1-[2-(1,4,6,7-tetrahydrotriazolo[4,5-c]pyridine-5-carbonyl)-4,5,7,8-tetrahydropyrazolo[1,5-d][1,4]diazepin-6-yl]propan-1-one] belongs 0.013 µM; to `O=C(OCc1ccc(OC(F)(F)F)c(Cl)c1)N1CCc2nc(C(=O)N3CCc4[nH]nnc4C3)nn2CC1` [Example 41, [3-chloro-4-(trifluoromethoxy)phenyl]methyl 2-(1,4,6,7-tetrahydrotriazolo[4,5-c]pyridine-5-carbonyl)-5,6,8,9-tetrahydro-[1,2,4]triazolo[1,5-d][1,4]diazepine-7-carboxylate], 0.006 µM. Then `COc1ccc(CCC(=O)N2CCc3cc(C(=O)N4CCc5[nH]nnc5C4)nn3CC2)cc1` [Example 19, 3-(4-methoxyphenyl)-1-[2-(1,4,6,7-tetrahydrotriazolo[4,5-c]pyridine-5-carbonyl)-4,5,7,8-tetrahydropyrazolo[1,5-d][1,4]diazepin-6-yl]propan-1-one], with 0.151 µM. In turn, `O=C(CCc1ccc(OC(F)(F)F)c(Cl)c1)N1CCc2cc(C(=O)N3CCc4[nH]nnc4C3)nn2CC1` [Example 22, 3-[3-chloro-4-(trifluoromethoxy)phenyl]-1-[2-(1,4,6,7-tetrahydrotriazolo[4,5-c]pyridine-5-carbonyl)-4,5,7,8-tetrahydropyrazolo[1,5-d][1,4]diazepin-6-yl]propan-1-one] came in with an IC50 of 0.018 µM. Against the preceding compound, the IC50 is about 8.4-fold lower. Consider `O=C(OCc1ccc(OC(F)(F)F)c(Cl)c1)N1CCc2nc(C(=O)N3CCc4[nH]nnc4C3)cn2CC1` [Example 42, [3-chloro-4-(trifluoromethoxy)phenyl]methyl 2-(1,4,6,7-tetrahydrotriazolo[4,5-c]pyridine-5-carbonyl)-5,6,8,9-tetrahydroimidazo[1,2-d][1,4]diazepine-7-carboxylate], for which the half-maximal inhibitory concentration (IC50) was determined as 0.007 µM. Against the preceding compound, the IC50 is about 2.6-fold lower. On to `O=C(OCc1ccc(OC(F)(F)F)cc1F)N1CCc2nc(C(=O)N3CCc4[nH]nnc4C3)nn2CC1` [Example 35, [2-fluoro-4-(trifluoromethoxy)phenyl]methyl 2-(1,4,6,7-tetrahydrotriazolo[4,5-c]pyridine-5-carbonyl)-5,6,8,9-tetrahydro-[1,2,4]triazolo[1,5-d][1,4]diazepine-7-carboxylate], for which it took 0.013 µM to reach half-maximal inhibition (IC50). Compound `N#Cc1ccc(COC(=O)N2CCc3cc(C(=O)N4CCc5[nH]nnc5C4)nn3CC2)cc1F` [Example 7, 4-Cyano-3-fluorobenzyl 2-(4,5,6,7-tetrahydro-1H-[1,2,3]triazolo[4,5-c]pyridine-5-carbonyl)-7,8-dihydro-4H-pyrazolo[1,5-d][1,4]diazepine-6(5H)-carboxylate] gave an IC50 of 0.07 µM. This IC50 is about 5.4-fold higher than that of the compound before.

The IC50 is the concentration needed to halve the response being measured.
